Reference: patent US9598406B2, “Quinazolinone derivatives for use in the treatment of chlamydiales infections” (Commissariat a l'Energie Atomique et aux Energies …, priority 2015, dated 2017)

How the values were obtained:
Assay type in all cases: cell-based
[1] = test system: Chlamydia trachomatis (Ctr) strain L2/434/Bu; experiment: Chlamydia trachomatis progeny infection of HeLa229 cells, cellular protection by compounds at 25 μM (GFP-signal, Image J quantification); conditions: HeLa229 cells pretreated 1 hour, Ctr MOI1, progeny infection fixed 48 hpi, versus solvent-treated cells
Procedure: HeLa229 (ATCC CCL-2.1). Cells were grown in RPMI1640 medium (Glutamax, 10% FBS, w/o HEPES) (Invitrogen).
Chlamydia trachomatis (Ctr). Laboratory-adapted strain L2/434/Bu (ATCC VR902B) was used in assays. Full biological and genetic information is available for this strain including complete genome sequence and defined proteome. This strain has a relatively low particle to infectivity ratio, perform efficient cell infection and has a higher viability than standard genital tract isolates with faster developmental cycle. Culture conditions have been described in (Wang Y., Kahane S., Cutcliffe L. T., Skilton R. J., Lambden P. R., Clarke I. N. Development of a transformation system for Chlamydia trachomatis: Restoration of glycogen biosynthesis by acquisition of a plasmid shuttle vector. PLoS Pathogen, 2011, 7(9):e1002258. doi: 10.1371/journal.ppat.1002258).
Compound application during Chlamydia trachomatis infection. HeLa229 cells were pretreated with Retro-2 and Retro-2 derivatives in concentrations of 25 μM for 1 hour until Chlamydia trachomatis (MOI1) were added to the cells. Compounds were present during infection. To obtain progeny infection, compound treated cells were lysed 24 h post infection (hpi) and lysate was used to infect fresh HeLa 229 cells. Infected cells of progeny infection were fixed with 4% Paraformaldehyde 48 hpi. Cells were stained for DAPI and Chlamydia trachomatis were detected by GFP-signal. Images are representative of n=2 independent experiments. Quantification of infected cells by Chlamydia trachomatis was realized from microscopy images with Image J software (FIG. 8) and cellular protection by compounds at 25 μM was then determined (Table 1) by comparison with solvent-treated cells (control) with the following equation: […]

[2] = test system: Simkania negevensis (Sn) strain Z; experiment: Simkania negevensis (Sn) infectivity assays in HeLa229 cells (primary and progeny infection; GroEL immunoblot, inclusion size/number, microscopy, TEM)
Procedure: (§1) HeLa229 (ATCC CCL-2.1) were grown in RPMI1640 medium (Glutamax, 10% FBS, w/o HEPES) (Invitrogen). Stable HeLa229 cell lines were established to constantly label the Golgi apparatus (B4GalT1 in a pCMV6-AC-mRFP cloning vector, OriGene) and the ER (KDEL in a pDsRed2-ER expression vector).
Simkania negevensis (Sn) strain Z (ATCC VR-1471) was prepared as described previously (Mehlitz A, Karunakaran K, Herweg J A, Krohne G, van de Linde S, Rieck E, Sauer M, Rudel T. The chlamydial organism Sn forms ER vacuole contact sites and inhibits ER-stress. Cell Microbiol 2014; 16(8):1224-1243).
Briefly, HeLa229 cells were grown to 50-70% confluence, were inoculated with Sn in RPMI1640 with 5% FBS, for 6 h at 35° C. in a humidified incubator at 5% CO2. Medium was replaced by infection medium (RPMI1640, Glutamax, 5% FBS, w/o HEPES) and growth was allowed for 3 days. Cells were mechanically detached and bacteria were released using ˜2-5 mm glass beads (Carl Roth). Low speed supernatant (600×g, 4° C. and 5 min) was subjected to high-speed centrifugation (20,000×g, 4° C. and 30 min) to pellet bacteria. Bacteria were washed twice with 5 ml SPG (250 mM sucrose, 50 mM sodium phosphate, 5 mM glutamate, pH 7.4), aliquoted and stored at −80° C. in SPG.
40,000 HeLa cells were seeded in 12-well cluster plates, inhibitor-treated and infected as indicated in the respective experiments.
For infectivity assays cells were either fixed and stained at indicated time points (FIG. 2, 4; inclusion formation/primary infection) or bacteria were released via one freeze thaw cycle (−70° C./37° C.) followed by mechanical release through pipetting and transfer to fresh HeLa229 cells (1:25-1:50, progeny/infectivity). Cells were centrifuged for 1 h at 35° C. and medium exchanged to infection medium. […] Infectivity assays were imaged on an automated fluorescence microscope Leica DMIR (FIG. 4). Numbers and average sizes of the SCV as well as host cell numbers were determined via GroEL and DAPI staining and images were analysed and quantified using FIJI (ImageJ) and Excel (Microsoft). […]

[3] = test system: Chlamydia trachomatis (Ctr) strain L2/434/Bu; experiment: Chlamydia trachomatis (Ctr) infectivity assays in HeLa229 cells with Retro-2 at 25, 50 and 75 μM (HSP60 immunoblot, GFP-signal)
Procedure: as §1
Chlamydia trachomatis (Ctr). Laboratory-adapted strain L2/434/Bu (ATCC VR902B) was used in assays. Full biological and genetic information is available for this strain including complete genome sequence and defined proteome. This strain has a relatively low particle to infectivity ratio, perform efficient cell infection and has a higher viability than standard genital tract isolates with faster developmental cycle. […]
(A) Cells with primary infection were lysed 24 h post infection (hpi). […] Progeny infection was lysed 24 hpi and analyzed together with primary infection samples by immunoblot. Chlamydial growth was detected with antibodies against chlamydial HSP60 protein and Actin was used as loading control (FIG. 6).
(B) Infected cells were fixed with 4% Paraformaldehyde 24 hpi. Cells were stained by Alexa-680 coupled Phalloidin and Ctr were detected by GFP-signal (FIG. 7).

SMILES	Cellular protection at 25 μM (%) [1] [%]	further results
Cc1nc(-c2ccc(C3Nc4ccccc4C(=O)N3c3ccccc3)s2)cs1 (centres unmarked) [Compound 25, 2-(5-(2-methylthiazol-4-yl)thiophen-2-yl)-3-phenyl-2,3-dihydroquinazolin-4(1H)-one]	100	–
CN1c2ccccc2C(=O)N(c2ccccc2)C1c1ccc(Br)s1 (centres unmarked) [RN-2-016, 2-(5-bromothiophen-2-yl)-1-methyl-3-phenyl-2,3-dihydroquinazolin-4(1H)-one]	91.8	–
Cc1nc(-c2ccc(C3N(C)c4ccccc4C(=O)N3c3ccccc3Cl)s2)cs1 (centres unmarked) [RN-3-072, 3-(2-chlorophenyl)-1-methyl-2-(5-(2-methylthiazol-4-yl)thiophen-2-yl)-2,3-dihydroquinazolin-4(1H)-one]	100	–
Cc1ccc(C2Nc3ccccc3C(=O)N2c2ccccc2)s1 (centres unmarked) [Retro-2, 2-(5-methylthiophen-2-yl)-3-phenyl-2,3-dihydroquinazolin-4(1H)-one]	18.1	Concentration at which maximal inhibition of Sn replication was observed ([2]; HeLa cells, FIGS. 1-4): 75 µM; Effect on primary and progeny infection for Sn ([2]; HeLa cells, Retro-2 at 25 and 75 μM, GroEL western, inclusion size, inclusion number, microscopy): inhibitir effect on primary and progeny infection; Sn inclusions morphology (transmission electron microscopy) ([2]; infected HeLa cells, versus DMSO-treated control, FIG. 5): sub-vacuolar membranes were highly enlarged and contained excessive membrane material; Ctr Hsp60 detection in the progeny infection ([3]; 75 μM of Retro-2, immunoblot, FIG. 6): almost no Ctr Hsp60 detection; Effect on Ctr development (Hsp60 western, GFP-expressing Ctr inclusions) ([3]; HeLa229 cells, Retro-2 25, 50 and 75 μM, primary infection 24 hpi): strong inhibitory effect
Cc1nc(-c2ccc(C3N(C)c4ccc(F)cc4C(=O)N3c3ccccc3)s2)cs1 (centres unmarked) [Retro-2.1, 6-fluoro-1-methyl-2-(5-(2-methylthiazol-4-yl)thiophen-2-yl)-3-phenyl-2,3-dihydroquinazolin-4(1H)-one]	100	–
CN1c2ccccc2C(=O)N(c2ccccc2)C1c1ccc(-c2csc(-c3ccc(F)cc3)n2)s1 (centres unmarked) [VP-89, 2-(5-(2-(4-fluorophenyl)thiazol-4-yl)thiophen-2-yl)-1-methyl-3-phenyl-2,3-dihydroquinazolin-4(1H)-one]	88.5	–
